Laboratory results taken from patent publication US4997843A, “2,4-disubstituted derivatives of tetrahydrofuran useful for the treatment of PAF mediated illnesses” (J Uriach & Cia S.A., priority 1987, dated 1991).
Like-named read-outs stand apart in the source and are kept apart here.

Key:
[1] = tested on: platelet aggregation induced by PAF; assay: Test 1: inhibition of platelet aggregation induced by PAF in vitro (rabbit platelet rich plasma, Born nephelometric technique); type: cell-based, male New Zealand albino rabbits; details: PAF C18 16 nM final, read-out: IC50 (concentration of the drug needed to inhibit the platelet aggregation in a 50%)
Protocol: TEST 1: INHIBITION OF PLATELET AGGREGATION INDUCED BY PAF
The platelet rich plasma (PRP) is prepared by blood centrifugation at 250 xg for 10 min. at 4° C. and it is diluted with platelet poor plasma (PPP) obtained by additional centrifugation at 300 xg for 10 min. The amount of platelets is adjusted to […].

[2] = tested on: hypotension induced by PAF; assay: Test 2: inhibition of the hypotensive effect induced by PAF in normotense rats; type: in vivo, male Sprague Dawley rats; details: anesthetized rats, compound via femoral vein 3 min before PAF (0.5 mg/Kg, i.v.); for ED50: Rattus norvegicus, iv, read-out: IC50 (inhibition of the hypotension induced by PAF)
Protocol: TEST 2--INHIBITION OF THE HYPOTENSIVE EFFECT INDUCED BY PAF IN NORMOTENSE RATS
Male Sprague Dawley rats, of 180-220 g of weight, anesthetized with sodium pentobarbital (50 mg/Kg, i.p. 1 mL/100 g) have been used. In order to measure the average arterial pressure a polyethylene catheter was introduced into the carotid artery. The arterial pressure was recorded with the help of a transducer connected with a R611 Beckman polygraph. The tested compounds were administrated through the femoral vein 3 min. before the injection of PAF (0.5 mg/Kg, i.v.).

[3] = Oryctolagus cuniculus, Platelet

Structure (SMILES) | IC50 [1, 3] [nM] | ED50 [2] [mg/kg] | further results
CCCCCCCCCCCCCCC1COC(COC(=O)CCCCC[N+](C)(C)C)C1 (racemic) [Compound 76] | 180000 | – | –
CCCCCCCCCCCCCCC1COC(COCCCC[n+]2ccsc2)C1 (racemic) [Compound 79, (±)-cis, trans-3-[4-[(4-tetradecyltetrahydrofuran-2-yl)methoxy]butyl]thiazolium 4-methylbenzenesulfonate] | 39000 | – | –
CCCCCCCCCCCCCCCCOCC1COC(COC(=O)CCCCC[n+]2ccsc2)C1 (racemic) [Compound 5, (±)-cis, trans-3-[6-[(4-hexadecyloxymethyltetrahydrofuran-2-yl)methoxy]-6-oxohexyl]thiazolium 4-methylbenzenesulfonate] | 4800 | 1.6 | –
CCCCCCCCCCCCCC[C@@H]1CO[C@H](COCCCCCC[n+]2ccsc2)C1 (relative stereo) [Compound 83, (±)-cis-3-[6-[(4-tetradecyltetrahydrofuran-2-yl)methoxy]hexyl]thiazolium4-methylbenzenesulfonate] | 2600 | – | –
CCCCCCCCCCCCCCC1COC(COCCCCCC[n+]2ccccc2)C1 (racemic) [Compound 74, (±)-cis, trans-1-[6-[(4-tetradecyltetrahydrofuran-2-yl)methoxy]hexyl]pyridinium methanesulfonate] | 6300 | – | –
CCCCCCCCCCCCOCC1COC(COCCCCCCC[n+]2ccsc2)C1 (racemic) [Compound 1, (±)-cis, trans-3-[7-[(4-dodecyloxymethyltetrahydrofuran-2-yl)methoxy]heptyl]thiazolium 4-methylbenzenesulphonate] | 2500 | 3.7 | –
CCCCCCCCCCCCCCC1COC(COC(=O)CCCCC[n+]2ccccc2)C1 (racemic) [Compound 77, (±)-cis, trans-1-[6-[(4-tetradecyltetrahydrofuran-2-yl)methoxy]-6-oxohexyl]pyridinium 4-methylbenzenesulfonate] | 120000 | – | –
CCCCCCCCCCCCCCCCOCC1COC(COC(=O)NCc2cccc[n+]2CC)C1 (racemic) [Compound 10, (±)-cis, trans-N-ethyl-2-[[[(4-hexadecyloxymethyltetrahydrofuran-2-yl)methoxy]carbonyl]amino]methylpyridinium iodide] | 3800 | 6.6 | –
CCCCCCCCCCCCCCOC[C@H]1CO[C@@H](COC(=O)N(Cc2cccc[n+]2CC)C(C)=O)C1.[Cl-] (racemic) [Compound 25, (±)-cis, trans-N-ethyl-2-[N-acetyl-[[[(4-tetradecyloxymethyltetrahydrofuran-2-yl)methoxy]carbonyl]amino]-methyl]pyridinium chloride] | – | – | IC50 [1]: 95 nM; IC50 (inhibition of the hypotension induced by PAF) [2]: 0.081 mg/Kg, i.v.
CCCCCCCCCCCCCCC1COC(COCCCC[N+]2(C)CCOCC2)C1 (racemic) [Compound 81, (±)-cis, trans-4-methyl-4-[4-[(4-tetradecyltetrahydrofuran-2-yl)methoxy]butyl]morpholinium 4-methylbenzenesulfonate] | 51000 | – | –
CCCCCCCCCCCCCC[C@@H]1CO[C@@H](COCCCCCC[n+]2ccsc2)C1 (racemic) [Compound 84, (±)-trans-3-[6-[(4-tetradecyltetrahydrofuran-2-yl)methoxy]hexyl]thiazolium 4-methylbenzenesulfonate] | – | – | IC50 ([1]; Oryctolagus cuniculus): 2600 nM
CCCCCCCCCCCCCCC1COC(COCCCC[n+]2ccccc2C)C1 (racemic) [Compound 80, (±)-cis, trans-2-methyl-1-[4-[(4-tetradecyltetrahydrofuran-2-yl)methoxy]butyl]pyridinium 4-methylbenzenesulfonate] | 75000 | – | –
CCCCCCCCCCCCCCC1COC(COC(=O)CCCCC[n+]2ccsc2)C1 (racemic) [Compound 75, (±)-cis, trans-3-[6-[(4-tetradecyltetrahydrofuran-2-yl)methoxy]-6-oxohexyl]thiazolium 4-methylbenzenesulfonate] | 50000 | – | –
CCCCCCCCCCCCCCC1COC(COCCCCCC[N+](C)(C)C)C1 (racemic) [Compound 71, (±)-cis, trans-6-[6-(4-tetradecyltetrahydrofuran-2-yl)methoxy]N,N,N-trimethylhexaminium 4-methylbenzenesulfonate] | 8200 | – | –
CCCCCCCCCCCCCCC1COC(COC(=O)CCCCC[n+]2ccn(C)c2)C1 (racemic) [Compound 78, (±)-cis, trans-3-methyl-1-[6-[(4-tetradecyltetrahydrofuran-2-yl)methoxy]-6-oxohexyl]imidazolium 4-methylbenzenesulfonate] | 210000 | – | –
CCCCCCCCCCCCCCC1COC(COCCCCCC[n+]2ccn(C)c2)C1 (racemic) [Compound 73, (±)-cis, trans-3-methyl-1-[6-[(4-tetradecyltetrahydrofuran-2-yl)methoxy]hexyl]imidazolium 4-methylbenzenesulfonate] | 15000 | – | –

More lines, in order of falling IC50 [1, 3], values ahead:

IC50 [1, 3] [nM] | Structure (SMILES) | ED50 [2] [mg/kg] | further results
2200 | CCCCCCCCCCCCCCC1COC(COCCCCCC[n+]2ccsc2)C1 (racemic) [Compound 70, (±)-cis, trans-3-[6-[(4-tetradecyltetrahydrofuran-2-yl)methoxy]hexyl]thiazolium 4-methylbenzenesulphonate] | 2.2 | –
2100 | CCCCCCCCCCCCCCCCCCOCC1CC(COCCCCC[n+]2ccsc2)CO1 (racemic) [Compound 62, (±)-cis, trans-3-[5-[(2-octadecyloxymethyltetrahydrofuran-4-yl)methoxy]pentyl]thiazolium 4-methylbenzenesulfonate] | – | –
1800 | CCCCCCCCCCCCCCC1COC(COCCCCCCC[n+]2ccsc2)C1 (racemic) [Compound 82, (±)-cis, trans-3-[7-[(4-tetradecyltetrahydrofuran-2-yl)methoxy]heptyl]thiazolium 4-methylbenzenesulfonate] | 1.5 | –
1600 | CCCCCCCCCCCCCCCCCCOCC1CC(COC(=O)NCc2cccc[n+]2C)CO1 (racemic) [Compound 66, (±)-cis, trans-N-methyl-2-[[[[(2-octadecyloxymethyl-tetrahydrofuran-4-yl)methoxy]carbonyl]amino]methyl]pyridinium iodide] | 5 | –
1400 | CCCCCCCCCCCCCCCCOCC1COC(COCCCCCC[n+]2ccsc2)C1 (racemic) [Compound 4, (±)-cis, trans-3-[6-[(4-hexadecyloxymethyltetrahydrofuran-2-yl)methoxy]hexyl]thiazolium 4-methylbenzenesulfonate] | 1.2 | –
900 | CCCCCCCCCCCCCCOCC1COC(COCCCCCCC[n+]2ccsc2)C1 (racemic) [Compound 2, (±)-cis, trans-3-[7-(4-tetradecyloxymethyltetrahydrofuran-2-yl)methoxy]heptyl]thiazolium 4-methylbenzenesulfonate] | 1.4 | –
700 | CCCCCCCCCCCCCCOCC1COC(COCCCCCC[n+]2ccsc2)C1 (racemic) [Compound 3, (±)-cis, trans-3-[6-[(4-tetradecyloxymethyltetrahydrofuran-2-yl)methoxy]hexyl]thiazolium 4-methylbenzenesulfonate] | 3 | –
240 | CCCCCCCCCCCCCCC1COC(COC(=O)N(Cc2cccc[n+]2C)C(C)=O)C1 (racemic) [Compound 109, (±)-cis,trans-N-methyl-2-[N-acetyl-[[[(4-tetradecyltetrahydrofuran-4-yl]methoxy]carbonyl]amino]methyl]pyridinium iodide] | 0.39 | –
200 | CCCCCCCCCCCCCCCCCCC1COC(COC(=O)N(Cc2cccc[n+]2CC)C(C)=O)C1 (racemic) [Compound 113] | 0.2 | –
140 | CCCCCCCCCCCCCCCCCCOCC1CC(COC(=O)N(Cc2cccc[n+]2C)C(C)=O)CO1 (racemic) [Compound 68, (±)-cis, trans-N-methyl-2-[N-acetyl-[[[(2-octadecyloxymethyltetrahydrofuran-4-yl)methoxy]carbonyl]amino]methyl]pyridinium iodide] | 0.11 | –
100 | CCCCCCCCCCCCCCCCOCC1COC(COC(=O)N(Cc2cccc[n+]2C)C(C)=O)C1 (racemic) [Compound 12, (±)-cis, trans-N-methyl-2-[N-acetyl-[[[(4-hexadecyloxymethyltetrahydrofuran-2-yl)methoxy]carbonyl]amino]methyl]pyridinium iodide] | 0.23 | –
34 | CCCCCCCCCCCCCCCCCCOCC1COC(COC(=O)N(Cc2cccc[n+]2CC)C(C)=O)C1 (racemic) [Compound 20, (±)-cis, trans-N-ethyl-2-[N-acetyl-[[[(4-octadecyloxymethyltetrahydrofuran-2yl)methoxy]carbonyl]amino]methyl]pyridinium iodide] | 0.035 | –
27 | CCCCCCCCCCCCCCCCCNC(=O)OCC1COC(COC(=O)N(Cc2cccc[n+]2CC)C(C)=O)C1 (racemic) [Compound 53, (±)-cis, trans-N-ethyl-2-[N-acetyl-[[[(4-heptadecylaminocarbonyloxymethyltetrahydrofuran-2-yl)methoxy]carbonyl]amino]methyl]pyridinium iodide] | 0.042 | –
